# Test results: ChEMBL document CHEMBL3352299, “Antiproliferative 4-(1,2,4-oxadiazol-5-yl)piperidine-1-carboxamides, a new tubulin inhibitor chemotype” (Bioorg Med Chem Lett, 2014)
# Columns and labels:
# Format in all cases: functional
# [1] = system: CAKI-1; assay: Antiproliferative activity against human CAKI-1 cells after 3 days by fluorescence assay; settings: CAKI-1, 72 h
# [2] = Antiproliferative activity against human RXF393 cells after 3 days by fluorescence assay; settings: RXF 393, 72 h
# [3] = system: SN12C; assay: Antiproliferative activity against human SN12C cells after 3 days by fluorescence assay; settings: 72 h
# [4] = system: TK-10; assay: Antiproliferative activity against human TK10 cells after 3 days by fluorescence assay; settings: TK-10, 72 h
# [5] = Antiproliferative activity against human UO31 cells after 3 days by fluorescence assay; settings: UO-31, 72 h
# [6] = Antiproliferative activity against human PC3 cells after 3 days by fluorescence assay; settings: PC-3, 72 h
# [7] = system: DU-145; assay: Antiproliferative activity against human DU145 cells after 3 days by fluorescence assay; settings: DU-145, 72 h
# [8] = system: MCF7; assay: Antiproliferative activity against human MCF7 cells after 3 days by fluorescence assay; settings: MCF7, 72 h
# [9] = system: MDA-MB-231; assay: Antiproliferative activity against human MDA-MB-231 cells after 3 days by fluorescence assay; settings: MDA-MB-231, 72 h
# [10] = Antiproliferative activity against human Hs 578T cells after 3 days by fluorescence assay; settings: 72 h
# [11] = Antiproliferative activity against human BT549 cells after 3 days by fluorescence assay; settings: BT-549, 72 h
# [12] = system: T47D; assay: Antiproliferative activity against human T47D cells after 3 days by fluorescence assay; settings: 72 h
# [13] = system: MDA-MB-468; assay: Antiproliferative activity against human MDA-MB-468 cells after 3 days by fluorescence assay; settings: MDA-MB-468, 72 h
# [14] = system: CCRF-CEM; assay: Antiproliferative activity against human CCRF-CEM cells after 3 days by fluorescence assay; settings: 72 h
# [15] = system: HL-60(TB); assay: Antiproliferative activity against human HL-60(TB) cells after 3 days by fluorescence assay; settings: HL-60, 72 h
# [16] = system: K562; assay: Antiproliferative activity against human K562 cells after 3 days by fluorescence assay; settings: K562, 72 h
# [17] = Antiproliferative activity against human MOLT4 cells after 3 days by fluorescence assay; settings: MOLT-4, 72 h
# [18] = Antiproliferative activity against human RPMI8226 cells after 3 days by fluorescence assay; settings: RPMI-8226, 72 h
# [19] = system: SR; assay: Antiproliferative activity against human SR cells after 3 days by fluorescence assay; settings: 72 h
# [20] = system: A549; assay: Antiproliferative activity against human A549 cells after 3 days by fluorescence assay; settings: A549, 72 h
# [21] = Antiproliferative activity against human EKVX cells after 3 days by fluorescence assay; settings: 72 h
# [22] = system: HOP-62; assay: Antiproliferative activity against human HOP62 cells after 3 days by fluorescence assay; settings: HOP-62, 72 h
# [23] = Antiproliferative activity against human HOP92 cells after 3 days by fluorescence assay; settings: HOP-92, 72 h
# [24] = system: NCI-H226; assay: Antiproliferative activity against human NCI-H226 cells after 3 days by fluorescence assay; settings: NCI-H226, 72 h
# [25] = system: NCI-H23; assay: Antiproliferative activity against human NCI-H23 cells after 3 days by fluorescence assay; settings: NCI-H23, 72 h
# [26] = system: NCI-H322M; assay: Antiproliferative activity against human NCI-H322M cells after 3 days by fluorescence assay; settings: 72 h
# [27] = system: NCI-H460; assay: Antiproliferative activity against human NCI-H460 cells after 3 days by fluorescence assay; settings: NCI-H460, 72 h
# [28] = system: NCI-H522; assay: Antiproliferative activity against human NCI-H522 cells after 3 days by fluorescence assay; settings: NCI-H522, 72 h
# [29] = Antiproliferative activity against human COLO205 cells after 3 days by fluorescence assay; settings: COLO 205, 72 h
# [30] = Antiproliferative activity against human HCC2998 cells after 3 days by fluorescence assay; settings: HCC 2998, 72 h
# [31] = Antiproliferative activity against human HCT116 cells after 3 days by fluorescence assay; settings: HCT-116, 72 h
# [32] = Antiproliferative activity against human HCT15 cells after 3 days by fluorescence assay; settings: HCT-15, 72 h
# [33] = system: HT-29; assay: Antiproliferative activity against human HT-29 cells after 3 days by fluorescence assay; settings: HT-29, 72 h
# [34] = system: KM12; assay: Antiproliferative activity against human KM12 cells after 3 days by fluorescence assay; settings: KM12, 72 h
# [35] = system: SW-620; assay: Antiproliferative activity against human SW620 cells after 3 days by fluorescence assay; settings: SW-620, 72 h
# [36] = system: SF-268; assay: Antiproliferative activity against human SF268 cells after 3 days by fluorescence assay; settings: SF-268, 72 h
# [37] = Antiproliferative activity against human SF295 cells after 3 days by fluorescence assay; settings: SF-295, 72 h
# [38] = Antiproliferative activity against human SF539 cells after 3 days by fluorescence assay; settings: SF-539, 72 h
# [39] = system: SNB-19; assay: Antiproliferative activity against human SNB19 cells after 3 days by fluorescence assay; settings: SNB-19, 72 h
# [40] = system: SNB-75; assay: Antiproliferative activity against human SNB75 cells after 3 days by fluorescence assay; settings: SNB-75, 72 h
# [41] = system: U-251; assay: Antiproliferative activity against human U251 cells after 3 days by fluorescence assay; settings: U-251, 72 h
# [42] = Antiproliferative activity against human LOXIMVI cells after 3 days by fluorescence assay; settings: LOX IMVI, 72 h
# [43] = system: Malme-3M; assay: Antiproliferative activity against human MALME-3M cells after 3 days by fluorescence assay; settings: 72 h
# [44] = system: M14; assay: Antiproliferative activity against human M14 cells after 3 days by fluorescence assay; settings: M14, 72 h
# [45] = system: MDA-MB-435; assay: Antiproliferative activity against human MDA-MB-435 cells after 3 days by fluorescence assay; settings: MDA-MB-435, 72 h
# [46] = system: SK-MEL-2; assay: Antiproliferative activity against human SK-MEL-2 cells after 3 days by fluorescence assay; settings: SK-MEL-2, 72 h
# [47] = system: SK-MEL-28; assay: Antiproliferative activity against human SK-MEL-28 cells after 3 days by fluorescence assay; settings: SK-MEL-28, 72 h
# [48] = system: SK-MEL-5; assay: Antiproliferative activity against human SK-MEL-5 cells after 3 days by fluorescence assay; settings: SK-MEL-5, 72 h
# [49] = Antiproliferative activity against human UACC257 cells after 3 days by fluorescence assay; settings: UACC-257, 72 h
# [50] = Antiproliferative activity against human UACC62 cells after 3 days by fluorescence assay; settings: UACC-62, 72 h
# [51] = system: IGROV-1; assay: Antiproliferative activity against human IGROV1 cells after 3 days by fluorescence assay; settings: IGROV-1, 72 h
# [52] = Antiproliferative activity against human OVCAR3 cells after 3 days by fluorescence assay; settings: OVCAR-3, 72 h
# [53] = Antiproliferative activity against human OVCAR4 cells after 3 days by fluorescence assay; settings: OVCAR-4, 72 h
# [54] = Antiproliferative activity against human OVCAR5 cells after 3 days by fluorescence assay; settings: OVCAR-5, 72 h
# [55] = Antiproliferative activity against human OVCAR8 cells after 3 days by fluorescence assay; settings: OVCAR-8, 72 h
# [56] = Antiproliferative activity against human NCI-ADR-RES cells after 3 days by fluorescence assay; settings: 72 h
# [57] = Antiproliferative activity against human SKOV3 cells after 3 days by fluorescence assay; settings: SK-OV-3, 72 h
# [58] = system: 786-0; assay: Antiproliferative activity against human 786-0 cells after 3 days by fluorescence assay; settings: 786-0, 72 h
# [59] = system: A498; assay: Antiproliferative activity against human A498 cells after 3 days by fluorescence assay; settings: A498, 72 h
# [60] = system: ACHN; assay: Antiproliferative activity against human ACHN cells after 3 days by fluorescence assay; settings: 72 h
compound,measurement,setting,value
COc1cccc(-c2noc(Nc3ccc(C)cc3)n2)c1OC,GI50,[1],3160 nM
same,GI50,[2],1320 nM
same,GI50,[3],6030 nM
same,GI50,[4],4470 nM
same,GI50,[5],5370 nM
same,GI50,[6],3800 nM
same,GI50,[7],3160 nM
same,GI50,[8],1580 nM
same,GI50,[9],10700 nM
same,GI50,[10],3470 nM
same,GI50,[11],6170 nM
same,GI50,[12],3630 nM
same,GI50,[13],1100 nM
same,GI50,[14],2340 nM
same,GI50,[15],676 nM
same,GI50,[16],245 nM
same,GI50,[17],4680 nM
same,GI50,[18],2950 nM
same,GI50,[19],234 nM
same,GI50,[20],3160 nM
same,GI50,[21],5500 nM
same,GI50,[22],2290 nM
same,GI50,[23],3890 nM
same,GI50,[24],7760 nM
same,GI50,[25],1740 nM
same,GI50,[26],5130 nM
same,GI50,[27],2090 nM
same,GI50,[28],891 nM
same,GI50,[29],2570 nM
same,GI50,[30],3630 nM
same,GI50,[31],1150 nM
same,GI50,[32],1780 nM
same,GI50,[33],525 nM
same,GI50,[34],1000 nM
same,GI50,[35],603 nM
same,GI50,[36],4790 nM
same,GI50,[37],1100 nM
same,GI50,[38],1200 nM
same,GI50,[39],3800 nM
same,GI50,[40],1910 nM
same,GI50,[41],3720 nM
same,GI50,[42],3090 nM
same,GI50,[43],1740 nM
same,GI50,[44],1350 nM
same,GI50,[45],219 nM
same,GI50,[46],2290 nM
same,GI50,[47],2340 nM
same,GI50,[48],3090 nM
same,GI50,[49],2820 nM
same,GI50,[50],2880 nM
same,GI50,[51],4790 nM
same,GI50,[52],1150 nM
same,GI50,[53],6310 nM
same,GI50,[54],11200 nM
same,GI50,[55],3980 nM
same,GI50,[56],562 nM
same,GI50,[57],2880 nM
same,GI50,[58],4790 nM
same,GI50,[59],2400 nM
same,GI50,[60],7080 nM
